Assay: xn = mol fraction of the nth substance listed
Conditions: 85 kPa, Liquid; for viscosity: Concentric cylinders viscometry; for mass density: Vibrating tube method

CCC(C)O (stereo not drawn) [butan-2-ol] + CCCO
Conditions	mass density [kg/m3]	viscosity [mPa·s]
293.15 K, x1 = 0.0818	804.1	2.323
293.15 K, x1 = 0.1601	804.6	2.428
293.15 K, x1 = 0.2399	805	2.54
293.15 K, x1 = 0.3499	805.5	2.702
293.15 K, x1 = 0.4399	805.8	2.838
293.15 K, x1 = 0.56	806	3.023
293.15 K, x1 = 0.6515	806.1	3.166
293.15 K, x1 = 0.7385	806.2	3.304
293.15 K, x1 = 0.85	806.3	3.486
293.15 K, x1 = 0.9407	806.3	3.639
293.15 K, x1 = 1	806.2	3.743
298.15 K, x1 = 0.0818	800.1	2.047
298.15 K, x1 = 0.1601	800.6	2.126
298.15 K, x1 = 0.2399	801	2.211
298.15 K, x1 = 0.3499	801.5	2.331
298.15 K, x1 = 0.4399	801.8	2.432
298.15 K, x1 = 0.56	802	2.57
298.15 K, x1 = 0.6515	802.1	2.676
298.15 K, x1 = 0.7385	802.2	2.778
298.15 K, x1 = 0.85	802.2	2.913
298.15 K, x1 = 0.9407	802.1	3.025
298.15 K, x1 = 1	802	3.101
303.15 K, x1 = 0.0818	796.1	1.824
303.15 K, x1 = 0.1601	796.7	1.893
303.15 K, x1 = 0.2399	797.1	1.962
303.15 K, x1 = 0.3499	797.6	2.057
303.15 K, x1 = 0.4399	797.9	2.134
303.15 K, x1 = 0.56	798.1	2.228
303.15 K, x1 = 0.6515	798.2	2.31
303.15 K, x1 = 0.7385	798.2	2.38
303.15 K, x1 = 0.85	798.2	2.466
303.15 K, x1 = 0.9407	798.1	2.536
303.15 K, x1 = 1	797.9	2.579
308.15 K, x1 = 0.0818	792.1	1.619
308.15 K, x1 = 0.1601	792.7	1.672
308.15 K, x1 = 0.2399	793.1	1.724
308.15 K, x1 = 0.3499	793.6	1.795
308.15 K, x1 = 0.4399	793.8	1.851
308.15 K, x1 = 0.56	794	1.925
308.15 K, x1 = 0.6515	794.1	1.98
308.15 K, x1 = 0.7385	794.1	2.03
308.15 K, x1 = 0.85	794	2.089
308.15 K, x1 = 0.9407	793.8	2.135
308.15 K, x1 = 1	793.6	2.162
313.15 K, x1 = 0.0818	788.1	1.444
313.15 K, x1 = 0.1601	788.7	1.485
313.15 K, x1 = 0.2399	789.1	1.525
313.15 K, x1 = 0.3499	789.6	1.58
313.15 K, x1 = 0.4399	789.8	1.622
313.15 K, x1 = 0.56	789.9	1.676
313.15 K, x1 = 0.6515	789.9	1.713
313.15 K, x1 = 0.7385	789.8	1.747
313.15 K, x1 = 0.85	789.7	1.786
313.15 K, x1 = 0.9407	789.5	1.814
313.15 K, x1 = 1	789.2	1.828
318.15 K, x1 = 0.0818	784	1.293
318.15 K, x1 = 0.1601	784.6	1.326
318.15 K, x1 = 0.2399	785.1	1.358
318.15 K, x1 = 0.3499	785.5	1.398
318.15 K, x1 = 0.4399	785.7	1.429
318.15 K, x1 = 0.56	785.8	1.467
318.15 K, x1 = 0.6515	785.7	1.493
318.15 K, x1 = 0.7385	785.6	1.516
318.15 K, x1 = 0.85	785.3	1.54
318.15 K, x1 = 0.9407	785.1	1.555
318.15 K, x1 = 1	784.7	1.559
323.15 K, x1 = 0.0818	779.9	1.16
323.15 K, x1 = 0.1601	780.5	1.185
323.15 K, x1 = 0.2399	781	1.209
323.15 K, x1 = 0.3499	781.4	1.24
323.15 K, x1 = 0.4399	781.5	1.263
323.15 K, x1 = 0.56	781.5	1.29
323.15 K, x1 = 0.6515	781.4	1.308
323.15 K, x1 = 0.7385	781.3	1.322
323.15 K, x1 = 0.85	781	1.336
323.15 K, x1 = 0.9407	780.6	1.341
323.15 K, x1 = 1	780.2	1.318

NCCCO [3-amino-1-propanol] + CCC(C)O
Conditions	mass density [kg/m3]	viscosity [mPa·s]
293.15 K, x2 = 0	987.8	37.33
293.15 K, x2 = 0.081	971.2	30.36
293.15 K, x2 = 0.1607	955.5	25.31
293.15 K, x2 = 0.2395	940.2	20.96
293.15 K, x2 = 0.3499	919.3	15.85
293.15 K, x2 = 0.4394	902.8	12.63
293.15 K, x2 = 0.5602	881	9.361
293.15 K, x2 = 0.658	863.9	7.574
293.15 K, x2 = 0.7408	849.7	6.103
293.15 K, x2 = 0.8511	830.9	4.795
293.15 K, x2 = 0.9396	816.2	4.079
298.15 K, x2 = 0	984.3	28.59
298.15 K, x2 = 0.081	967.8	23.43
298.15 K, x2 = 0.1607	951.9	19.73
298.15 K, x2 = 0.2395	936.6	16.46
298.15 K, x2 = 0.3499	915.6	12.59
298.15 K, x2 = 0.4394	899	10.15
298.15 K, x2 = 0.5602	877.2	7.634
298.15 K, x2 = 0.658	860	6.253
298.15 K, x2 = 0.7408	845.7	5.076
298.15 K, x2 = 0.8511	827	4.016
298.15 K, x2 = 0.9396	812.2	3.403
303.15 K, x2 = 0	980.3	22.31
303.15 K, x2 = 0.081	964	18.39
303.15 K, x2 = 0.1607	948.1	15.6
303.15 K, x2 = 0.2395	932.7	13.11
303.15 K, x2 = 0.3499	911.6	10.15
303.15 K, x2 = 0.4394	895	8.261
303.15 K, x2 = 0.5602	873.2	6.309
303.15 K, x2 = 0.658	856	5.213
303.15 K, x2 = 0.7408	841.7	4.261
303.15 K, x2 = 0.8511	823	3.377
303.15 K, x2 = 0.9396	808.2	2.853
308.15 K, x2 = 0	976.2	17.67
308.15 K, x2 = 0.081	959.9	14.66
308.15 K, x2 = 0.1607	944.2	12.51
308.15 K, x2 = 0.2395	928.7	10.58
308.15 K, x2 = 0.3499	907.6	8.29
308.15 K, x2 = 0.4394	890.9	6.808
308.15 K, x2 = 0.5602	869	5.251
308.15 K, x2 = 0.658	851.9	4.371
308.15 K, x2 = 0.7408	837.6	3.604
308.15 K, x2 = 0.8511	818.9	2.866
308.15 K, x2 = 0.9396	803.9	2.411
313.15 K, x2 = 0	972.3	14.21
313.15 K, x2 = 0.081	956.1	11.85
313.15 K, x2 = 0.1607	940.2	10.16
313.15 K, x2 = 0.2395	924.9	8.658
313.15 K, x2 = 0.3499	903.7	6.856
313.15 K, x2 = 0.4394	886.9	5.676
313.15 K, x2 = 0.5602	865	4.422
313.15 K, x2 = 0.658	847.8	3.715
313.15 K, x2 = 0.7408	833.5	3.07
313.15 K, x2 = 0.8511	814.7	2.446
313.15 K, x2 = 0.9396	799.6	2.053
318.15 K, x2 = 0	968.5	11.58
318.15 K, x2 = 0.081	952.4	9.715
318.15 K, x2 = 0.1607	936.6	8.364
318.15 K, x2 = 0.2395	921.1	7.173
318.15 K, x2 = 0.3499	899.8	5.733
318.15 K, x2 = 0.4394	882.9	4.781
318.15 K, x2 = 0.5602	860.9	3.758
318.15 K, x2 = 0.658	843.6	3.174
318.15 K, x2 = 0.7408	829.3	2.634
318.15 K, x2 = 0.8511	810.4	2.103
318.15 K, x2 = 0.9396	795.2	1.76
323.15 K, x2 = 0	964.9	9.546
323.15 K, x2 = 0.081	948.9	8.057
323.15 K, x2 = 0.1607	933	6.971
323.15 K, x2 = 0.2395	917.5	6.012
323.15 K, x2 = 0.3499	896.1	4.85
323.15 K, x2 = 0.4394	879.2	4.064
323.15 K, x2 = 0.5602	857	3.228
323.15 K, x2 = 0.658	839.7	2.731
323.15 K, x2 = 0.7408	825.2	2.275
323.15 K, x2 = 0.8511	806.1	1.82
323.15 K, x2 = 0.9396	790.8	1.519

From the NIST ThermoML archive (doi:10.1021/acs.jced.8b01097)
